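Compound exposure: 48 hours, 5 concentrations, 96-well plates. Definition used: TGI = concentration required for complete inhibition of growth.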
Experiments:
Assay in all cases: NCI tumour cell line growth inhibition, 48 h
[1] = system: 786-0 renal
[2] = system: CAKI-1 renal
[3] = system: CCRF-CEM leukemia
[4] = system: EKVX NSCLC
[5] = system: HCC-2998 colon
[6] = system: HCT-116 colon
[7] = system: HOP-62 NSCLC
[8] = system: IGROV1 ovarian
[9] = system: KM12 colon
[10] = system: MALME-3M melanoma
[11] = system: MDA-N
[12] = system: OVCAR-3 ovarian
[13] = system: RPMI-8226 leukemia
[14] = system: SK-MEL-28 melanoma
[15] = system: SK-MEL-5 melanoma
[16] = system: SK-OV-3 ovarian
[17] = system: SN12C renal
[18] = system: UACC-257 melanoma
[19] = system: UO-31 renal

Structure (SMILES)	TGI [1] [µM]	TGI [2] [µM]	TGI [3] [µM]	TGI [4] [µM]	TGI [5] [µM]	TGI [6] [µM]	TGI [7] [µM]	TGI [8] [µM]	TGI [9] [µM]	TGI [10] [µM]	TGI [11] [µM]	TGI [12] [µM]	TGI [13] [µM]	TGI [14] [µM]	TGI [15] [µM]	TGI [16] [µM]	TGI [17] [µM]	TGI [18] [µM]	TGI [19] [µM]
CCOC(=O)/C=C(/C(=O)OCC)n1ccc(N)nc1=O	> 100	> 100	76	> 100	> 100	> 100	> 100	> 100	> 100	> 100	> 100	> 100	> 100	> 100	> 100	> 100	> 100	> 100	> 100
CCOP(=O)(OCC)c1c(C(=O)OC)cc(=O)[nH]c1-c1ccc(C)cc1	> 53.4	19	6.91	17	33.5	> 51.1	41.7	20.6	33.6	19.9	> 61.1	25.2	19.8	34.7	28.8	49.4	> 57	30.1	13.8
C1CCC2C(C1)CCCC2NC1=NCCO1 (stereo not drawn)	> 100	> 100	> 100	> 100	> 100	> 100	> 100	> 100	> 100	> 100	> 100	> 100	> 100	> 100	> 100	> 100	> 100	> 100	> 100
COc1ccc(Nc2nc(NS(=O)(=O)c3cc(C)c(Cl)cc3S)n[nH]2)cc1	> 100	> 100	> 100	> 100	> 100	> 100	> 100	> 100	> 100	> 100	> 100	> 100	> 100	> 100	> 100	> 100	> 100	> 100	> 100
O=c1oc2ccccc2c(Nc2ccc3c(c2)Oc2ccccc2O3)c1[N+](=O)[O-]	38.8	> 100	> 100	67.6	62.4	> 100	> 100	48.9	> 100	53.3	> 100	64.2	> 100	50	45.3	40.9	> 100	91.2	> 100
CCC(C#N)NC(=O)NC(C#N)CC (stereo not drawn)	> 100	> 100	> 100	> 100	> 100	> 100	> 100	> 100	> 100	> 100	> 100	> 100	> 100		> 100	> 100	> 100	> 100	> 100

From PubChem BioAssay (NCI)
